Test results taken from publication PMC4581874 (PLoS ONE, 2015).

Assays:
PKCγ (h) = biological target: T1, PKCγ (h) (Homo sapiens, UniProt P05129); assay: Kinase profile, PKCγ; type: biochemical; details: mean ± S.D.
T1 construct: purchased Millipore (now Eurofins) KinaseProfiler / IC50 Profiler
Method: (§1) All kinase assays were carried out using KinaseProfiler^TM and IC50 Profiler^TM (Millipore UK Ltd., Dundee, UK. Now Eurofins Scientific, Dundee, UK). All IC50 data were presented as the mean values. The Curves obtained to determine IC50 values were shown in Supporting Information (S1 Fig).

PKCθ (h) = biological target: T2, PKCθ (h) (Homo sapiens, UniProt Q04759); assay: Kinase profile, PKCθ; type: biochemical; details: mean ± S.D.
T2 construct: purchased Millipore (now Eurofins) KinaseProfiler / IC50 Profiler
Method: as §1

CDK1/cyclin B (h) = biological target: T3, CDK1/cyclin B (h) (Homo sapiens, UniProt P06493); assay: Kinase profile, CDK1/cyclin B; type: biochemical; details: mean ± S.D.
T3 construct: purchased Millipore (now Eurofins) KinaseProfiler / IC50 Profiler
Method: as §1

SAPK2a (h) = biological target: T4, SAPK2a (h) (Homo sapiens, UniProt Q16539); assay: Kinase profile, SAPK2a; type: biochemical; details: mean ± S.D.
T4 construct: purchased Millipore (now Eurofins) KinaseProfiler / IC50 Profiler
Method: as §1

VEGFR-1 = biological target: T5, VEGFR-1 (Homo sapiens, UniProt P17948); assay: In vitro kinase assay, VEGFR-1; type: biochemical
T5 construct: purchased Millipore UK Ltd., Dundee, UK (now Eurofins Scientific); KinaseProfiler / IC50 Profiler service
Method: as §1

HUVECs = assay: HUVEC viability assay (cytotoxicity); type: cell-based, human; details: 24 hours
Method: HCC827 cells were purchased from the American Type Culture Collection (ATCC, Manassas, VA, USA). Cells were grown in RPMI 1640 (Welgene Inc., Daegu, Republic of Korea) supplemented with 10% fetal bovine serum (FBS) (Welgene Inc.) and 1% penicillin-streptomycin (Gibco®, Life Technologies, Carlsbad, CA, USA) in a humidified 5% CO2 atmosphere at 37°C. Human umbilical vein endothelial cells (HUVECs, ScienCell Research Laboratories, Carlsbad, CA, USA) were cultured in endothelial growth medium-2 (EGM-2; Lonza, Walkersville, MD, USA) from passages 3 to 6.
For the HUVEC viability assay, HUVECs were treated with phosphate-buffered saline (PBS) or the indicated concentrations of VEGF inhibitors in EGM-2 medium for 24 hours. After the cells were washed with PBS, they were counted using an inverted light microscope (Nikon Eclipse Ti-U; Nikon Corp., Tokyo, Japan) in 5 random fields from each well.

HCC827 cells = assay: HCC827 cell viability assay; type: cell-based; details: Homo sapiens, 72 h, read-out: HCC827 IC50 (anti-proliferative activity)
Method: HCC827 cells were purchased from the American Type Culture Collection (ATCC, Manassas, VA, USA). […] Human umbilical vein endothelial cells (HUVECs, ScienCell Research Laboratories, Carlsbad, CA, USA) were cultured in endothelial growth medium-2 (EGM-2; Lonza, Walkersville, MD, USA) from passages 3 to 6.
After a 24-hour incubation, the cells were treated with a series of test compound dilutions for 72 hours. Cell viability was assessed using EZ-Cytox (Daeil Lab Service, Seoul, South Korea) according to the manufacturer’s instructions.
Cells were incubated for 72 h with a range of concentrations of MKP101, and cell viability was measured using the WST-1 assay. […] Western blot analysis using antibodies to phosphorylated and total EGFR from a representative experiment is shown. Cells were incubated for 3 h at the indicated concentration. (C) Graph showing the relative intensities of the total and phosphorylated EGFR as determined by band densitometry. IC50, half-maximal inhibitory concentration.

PKA (h) = biological target: T6, PKA (h) (Homo sapiens, UniProt P17612); assay: Kinase profile, PKA; type: biochemical; details: mean ± S.D.
T6 construct: purchased Millipore (now Eurofins) KinaseProfiler / IC50 Profiler
Method: as §1

PDGFRβ = biological target: T7, PDGFRβ (Homo sapiens, UniProt P09619); assay: In vitro kinase assay, PDGFRβ; type: biochemical
T7 construct: purchased Millipore UK Ltd., Dundee, UK (now Eurofins Scientific); KinaseProfiler / IC50 Profiler service
Method: as §1

PhKγ2 (h) = biological target: T8, PhKγ2 (h) (Homo sapiens, UniProt P15735); assay: Kinase profile, PhKγ2; type: biochemical; details: mean ± S.D.
T8 construct: purchased Millipore (now Eurofins) KinaseProfiler / IC50 Profiler
Method: as §1

CDK9/cyclin T1 (h) = biological target: T9, CDK9/cyclin T1 (h) (Homo sapiens, UniProt P50750); assay: Kinase profile, CDK9/cyclin T1; type: biochemical; details: mean ± S.D.
T9 construct: purchased Millipore (now Eurofins) KinaseProfiler / IC50 Profiler
Method: as §1

T7 sequence (P09619 33-1106): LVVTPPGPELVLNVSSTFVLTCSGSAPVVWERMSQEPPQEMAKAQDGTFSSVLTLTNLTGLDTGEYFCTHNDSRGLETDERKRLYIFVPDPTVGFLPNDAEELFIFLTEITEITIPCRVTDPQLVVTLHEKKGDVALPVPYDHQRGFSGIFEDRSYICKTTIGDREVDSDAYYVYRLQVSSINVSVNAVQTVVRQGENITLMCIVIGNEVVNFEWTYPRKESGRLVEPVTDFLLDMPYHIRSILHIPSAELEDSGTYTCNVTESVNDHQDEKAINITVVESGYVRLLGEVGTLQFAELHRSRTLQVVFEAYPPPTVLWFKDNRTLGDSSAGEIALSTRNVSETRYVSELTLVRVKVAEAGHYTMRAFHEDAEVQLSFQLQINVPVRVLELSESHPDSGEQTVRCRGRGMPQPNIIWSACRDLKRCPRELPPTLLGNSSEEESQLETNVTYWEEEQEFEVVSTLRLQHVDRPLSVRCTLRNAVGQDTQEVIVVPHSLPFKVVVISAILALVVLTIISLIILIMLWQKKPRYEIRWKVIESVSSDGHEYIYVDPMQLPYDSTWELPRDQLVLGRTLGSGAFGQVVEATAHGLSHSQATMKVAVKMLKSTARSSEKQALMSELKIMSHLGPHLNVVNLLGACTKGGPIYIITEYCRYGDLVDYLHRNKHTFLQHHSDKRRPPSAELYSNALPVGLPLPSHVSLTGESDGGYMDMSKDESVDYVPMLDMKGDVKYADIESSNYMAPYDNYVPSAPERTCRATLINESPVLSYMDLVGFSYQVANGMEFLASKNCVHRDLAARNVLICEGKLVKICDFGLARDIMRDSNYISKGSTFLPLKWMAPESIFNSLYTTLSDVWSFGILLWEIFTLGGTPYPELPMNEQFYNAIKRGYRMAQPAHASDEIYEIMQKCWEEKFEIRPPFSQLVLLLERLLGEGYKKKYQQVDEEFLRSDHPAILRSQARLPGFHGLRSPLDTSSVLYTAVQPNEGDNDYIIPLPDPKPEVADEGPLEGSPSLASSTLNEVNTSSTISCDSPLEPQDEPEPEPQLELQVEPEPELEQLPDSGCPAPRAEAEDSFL
T5 sequence (P17948 27-1338): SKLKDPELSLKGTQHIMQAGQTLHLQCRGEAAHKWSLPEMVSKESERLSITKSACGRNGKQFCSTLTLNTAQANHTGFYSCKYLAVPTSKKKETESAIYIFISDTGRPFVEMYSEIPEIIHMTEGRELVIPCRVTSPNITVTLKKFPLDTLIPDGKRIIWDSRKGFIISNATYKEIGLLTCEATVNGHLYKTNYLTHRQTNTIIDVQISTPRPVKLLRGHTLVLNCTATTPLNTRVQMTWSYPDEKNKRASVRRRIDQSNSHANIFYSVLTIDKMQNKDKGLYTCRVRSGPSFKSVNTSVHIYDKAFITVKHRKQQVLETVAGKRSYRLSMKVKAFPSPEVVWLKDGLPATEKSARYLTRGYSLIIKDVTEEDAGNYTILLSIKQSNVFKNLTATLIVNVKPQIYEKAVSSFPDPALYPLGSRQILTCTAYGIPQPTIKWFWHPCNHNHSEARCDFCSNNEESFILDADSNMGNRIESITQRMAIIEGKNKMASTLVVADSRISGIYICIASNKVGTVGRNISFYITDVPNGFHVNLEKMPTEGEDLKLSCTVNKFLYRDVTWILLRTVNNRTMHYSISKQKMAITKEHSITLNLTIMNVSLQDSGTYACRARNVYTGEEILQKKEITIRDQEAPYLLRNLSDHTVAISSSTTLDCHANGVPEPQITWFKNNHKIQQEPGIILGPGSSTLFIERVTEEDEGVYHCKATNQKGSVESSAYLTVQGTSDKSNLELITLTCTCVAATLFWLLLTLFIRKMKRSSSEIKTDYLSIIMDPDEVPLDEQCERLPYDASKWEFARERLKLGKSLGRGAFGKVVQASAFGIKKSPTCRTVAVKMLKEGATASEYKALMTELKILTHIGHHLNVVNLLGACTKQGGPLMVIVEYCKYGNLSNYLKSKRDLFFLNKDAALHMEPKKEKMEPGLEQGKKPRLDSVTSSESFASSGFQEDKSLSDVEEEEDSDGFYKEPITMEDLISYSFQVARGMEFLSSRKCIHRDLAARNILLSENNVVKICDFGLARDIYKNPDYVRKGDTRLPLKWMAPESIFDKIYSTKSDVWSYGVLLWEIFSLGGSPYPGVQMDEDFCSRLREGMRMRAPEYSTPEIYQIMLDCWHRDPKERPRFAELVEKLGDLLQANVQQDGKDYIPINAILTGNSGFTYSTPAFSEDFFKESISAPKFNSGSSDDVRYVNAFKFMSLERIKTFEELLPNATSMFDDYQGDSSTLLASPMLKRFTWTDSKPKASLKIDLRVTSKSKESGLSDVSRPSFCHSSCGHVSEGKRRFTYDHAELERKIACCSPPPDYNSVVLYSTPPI
T4 sequence (Q16539 whole entry): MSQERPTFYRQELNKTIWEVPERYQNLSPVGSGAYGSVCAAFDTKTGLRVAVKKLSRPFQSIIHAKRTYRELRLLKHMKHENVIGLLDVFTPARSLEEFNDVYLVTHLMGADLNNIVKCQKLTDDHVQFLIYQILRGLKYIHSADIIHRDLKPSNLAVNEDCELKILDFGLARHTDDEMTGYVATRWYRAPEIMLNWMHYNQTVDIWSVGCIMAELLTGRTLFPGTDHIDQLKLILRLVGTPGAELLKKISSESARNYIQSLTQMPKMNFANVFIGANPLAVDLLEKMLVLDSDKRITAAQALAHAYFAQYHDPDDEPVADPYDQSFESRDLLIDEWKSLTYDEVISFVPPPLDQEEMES
T3 sequence (P06493 whole entry): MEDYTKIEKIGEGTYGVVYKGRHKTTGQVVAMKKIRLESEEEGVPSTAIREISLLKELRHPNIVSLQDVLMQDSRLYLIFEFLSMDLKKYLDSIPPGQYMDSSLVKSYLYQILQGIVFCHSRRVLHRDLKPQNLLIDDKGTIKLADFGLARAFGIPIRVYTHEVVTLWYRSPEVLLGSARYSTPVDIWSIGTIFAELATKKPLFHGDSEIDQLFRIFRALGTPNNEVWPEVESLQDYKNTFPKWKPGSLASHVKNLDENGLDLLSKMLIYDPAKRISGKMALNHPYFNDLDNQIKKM
T3 sequence (P14635 whole entry partner): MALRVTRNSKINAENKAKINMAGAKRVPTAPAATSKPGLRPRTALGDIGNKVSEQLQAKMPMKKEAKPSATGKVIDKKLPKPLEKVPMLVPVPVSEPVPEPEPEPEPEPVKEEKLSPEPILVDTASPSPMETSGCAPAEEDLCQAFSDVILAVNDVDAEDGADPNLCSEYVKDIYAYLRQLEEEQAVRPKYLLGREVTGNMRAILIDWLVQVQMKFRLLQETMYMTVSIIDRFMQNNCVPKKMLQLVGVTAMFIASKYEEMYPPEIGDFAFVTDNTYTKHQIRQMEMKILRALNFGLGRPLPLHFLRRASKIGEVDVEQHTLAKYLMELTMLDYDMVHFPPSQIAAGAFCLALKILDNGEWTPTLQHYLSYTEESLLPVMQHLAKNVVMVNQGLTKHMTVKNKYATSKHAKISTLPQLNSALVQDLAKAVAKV
T2 sequence (Q04759 whole entry): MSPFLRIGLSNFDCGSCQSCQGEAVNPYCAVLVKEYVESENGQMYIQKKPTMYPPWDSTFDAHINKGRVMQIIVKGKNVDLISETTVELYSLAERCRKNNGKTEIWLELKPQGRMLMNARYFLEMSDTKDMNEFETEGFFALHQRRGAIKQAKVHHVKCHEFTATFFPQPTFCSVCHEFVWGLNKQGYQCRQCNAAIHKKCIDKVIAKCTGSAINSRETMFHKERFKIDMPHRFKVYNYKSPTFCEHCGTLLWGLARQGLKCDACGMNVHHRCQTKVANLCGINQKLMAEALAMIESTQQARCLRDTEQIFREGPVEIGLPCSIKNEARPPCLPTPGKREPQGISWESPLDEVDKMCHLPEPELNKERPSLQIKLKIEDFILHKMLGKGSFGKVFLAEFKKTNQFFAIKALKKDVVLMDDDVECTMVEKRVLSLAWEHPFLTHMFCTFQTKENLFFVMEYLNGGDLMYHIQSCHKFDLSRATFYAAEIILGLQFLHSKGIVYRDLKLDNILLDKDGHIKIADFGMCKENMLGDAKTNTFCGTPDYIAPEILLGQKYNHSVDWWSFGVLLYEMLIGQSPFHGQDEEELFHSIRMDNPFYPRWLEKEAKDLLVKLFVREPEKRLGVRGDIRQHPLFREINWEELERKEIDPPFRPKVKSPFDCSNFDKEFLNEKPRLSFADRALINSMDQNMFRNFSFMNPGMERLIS
T8 sequence (P15735 whole entry): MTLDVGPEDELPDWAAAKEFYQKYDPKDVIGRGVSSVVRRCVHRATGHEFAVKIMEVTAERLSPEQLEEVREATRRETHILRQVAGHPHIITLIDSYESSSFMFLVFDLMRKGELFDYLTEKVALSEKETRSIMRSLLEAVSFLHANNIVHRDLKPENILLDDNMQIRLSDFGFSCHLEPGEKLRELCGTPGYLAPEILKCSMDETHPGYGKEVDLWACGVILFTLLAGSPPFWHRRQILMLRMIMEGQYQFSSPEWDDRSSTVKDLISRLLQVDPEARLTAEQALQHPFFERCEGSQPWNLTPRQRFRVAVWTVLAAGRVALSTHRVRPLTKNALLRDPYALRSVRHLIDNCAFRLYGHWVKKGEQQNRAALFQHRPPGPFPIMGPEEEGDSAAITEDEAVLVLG

Cc1ccc(Nc2nccc(N(C)c3ccc4[nH]ccc4c3)n2)cc1S(N)(=O)=O [MKP101]
inhibition at 1 µM (PKCγ (h)): 12 ± 2% | inhibition at 1 µM (PKCθ (h)): 16 ± 2% | inhibition at 1 µM (CDK1/cyclin B (h)): 18 ± 8% | inhibition at 1 µM (SAPK2a (h)): 82 ± 2% | inhibition at 1 µM (VEGFR-1; 1 μM, mean ± S.D., read-out: % inhibition at 1 μM, VEGFR-1 (h)): 99% | IC50 (VEGFR-1; in vitro kinase assay): 3 nM | Cytotoxicity in HUVECs (HUVECs; 1 μg/mL): No cytotoxicity was observed | Cytotoxicity in HUVECs (HUVECs; 5 and 10 μg/mL): significant endothelial cytotoxicity | IC50 (HCC827 cells): 160 nM | inhibition at 1 µM (PKA (h)): 7 ± 6% | inhibition at 1 µM (PDGFRβ; 1 μM, mean ± S.D., read-out: % inhibition at 1 μM, PDGFRβ (h)): 95 ± 1% | IC50 (PDGFRβ; in vitro kinase assay): 70 nM | inhibition at 1 µM (PhKγ2 (h)): 0% | inhibition at 1 µM (CDK9/cyclin T1 (h)): 54 ± 4%
